{"source": "patent US7321027B2", "about": "“Small technetium-99m and rhenium labeled agents and methods for imaging tumors” (President and Fellows of Harvard College, priority 2000, dated 2008)", "key": {"[1]": {"tested_on": "B16/F0 murine melanoma cells", "assay": "In-vitro tumor-cell uptake, melanoma cells", "format": "cell-based", "settings": "for % active: active part of in-vitro uptake, 37° C. vs 4° C.", "description": "In-Vitro Tumor-Uptake Studies. Tumor-cell uptake studies in B16/F0 murine melanoma cells were performed with complexes Tc-(Compound A-D and H-M) at 37° C. and 4° C. Additionally, tumor-cell uptake of complex Tc-(Compound A) was investigated in another rapidly dividing MCF-7 human breast cancer cell line.\nIn-Vitro Cell Studies. Murine B16/F0 melanoma cells and human MCF-7 breast cancer cells were obtained from American Type Culture Collection, Manassas Va., (ATCC) and were grown in T-175 flasks in 14 mL Dulbecco's Modified Eagle Medium (D-MEM; Gibco, Life Technology, Gaithersburg, Md.) containing 4500 mg/L D-glucose, L-glutamine, and pyridoxine hydrochloride, 110 mg/L sodium pyruvate, 10% fetal bovine serum (FBS), 0.2% gentamicin and 0.5% penicillin-streptomycin solution. All cells were harvested from cell culture flasks by trypsinization with 1 mL trypsin-EDTA solution (0.25% trypsin, 1 mM EDTA×4 Na) (Gibco). After being washed with 12 mL Dulbecco's Phosphate-Buffered Saline (PBS) (Gibco), pH 7.2 (Ca^2+- and Mg^2+-free; g/L KCl, 0.20; KH2PO4, 0.20; NaCl, 8.00; Na2HPO4, 1.15), the cells were counted and resuspended in 8 mL S-MEM (Gibco) (Ca^2+ free, with reduced Mg^2+ content) and stored at 4° C. until use.\nFor in-vitro tumor-cell accumulation studies, 5×10^6 cells in polypropylene test tubes were incubated at 37° C. or 4° C., with intermittent agitation with 1-2 μCi (5 μL) ^99mTc-complex Tc-(Compound A-D) in a total volume of 350 μL S-MEM. At appropriate time intervals the tubes were vortexed and 8-μL samples were layered on 350 μL cold FBS in a 400-μL Eppendorf microcentrifuge tube. After centrifugation at 15,000 rpm for 2 min, the tubes were frozen in a dry ice-acetone bath. While still frozen, the bottom tip of the microcentrifuge tube containing the cell pellet was cut and placed in a counting tube. The remaining portion of the tube with the supernatant was placed in a separate counting tube. Both fractions were counted for radioactivity in a γ-counter (WALLAC, 1480 WIZARD 3″™). The amount of supernatant in the cell pellet was determined to be <1% in separate experiments. The percentage cell uptake of the ^99mTc-complex was calculated as: % uptake=[cpm(pellet)]/[cpm(pellet)+cpm(supernatant)]×100"}, "B16/F0 murine melanoma": {"tested_on": "B16/F0 murine melanoma", "assay": "In-vivo tumor uptake and biodistribution", "design": "species or system C57B16 mice", "description": "In-Vivo Tumor Uptake. To study the tumor uptake of ^99mTc-complexes, Tc-(Compound A-D and J-K), in vivo, biodistribution experiments at 1 h and 6 h after their administration were carried out in C57B16 mice with palpable B16 melanoma nodules. The biodistribution data including melanoma/nontumor (M/NT) ratios for selected organs are summarized in Table 4 and 5 as percentage injected dose per gram ([…]).\nAnimal Studies. All animal experiments were performed in compliance with the Principles of Laboratory Animal Care (NIH publication #85-23, revised 1985). Biodistribution studies and tumor-uptake measurements were performed in C57B16 mice (15 to 20 g) bearing the B16/F0 murine melanoma on the hind limb. See for example the studies described in, which are hereby incorporated by reference, Brandau, W.; Niehoff, T.; Pulawski, P.; Jonas, M.; Dutschka, K.; Sciuk, J.; Coenen, H. H.; Schober, O. Structure Distribution Relationship of Iodine-123-Iodobenzamides as Tracers for the Detection of Melanotic Melanoma. J. Nucl. Med. 1996, 37, 1865-1871; Mohanmmed, A.; Nicholl, C.; Titsch, U.; Eisenhut, M. Radiojodinated N-(Alkylaminoalkyl)-Substituted 4-Methoxy-, 4-Hydroxy-, and 4-Aminobenzamides: Biological Investigations for the Improvement of Melanoma-Imaging Agents. Nucl. Med. Biol. 1997, 24, 373-380; Titsch, U.; Mohammed, A.; Wagner, S.; Oberdorfer, F.; Eisenhut, M. Syntheses of N-(2-Diethylaminoethyl)benzamides Suitable for ^99mTc Complexation. J. Labelled Compd. Radiopharm. 1997, 40, 416-418; Dittmann, H.; Coenen, H. H.; Zölzer, F.; Dutschka, K.; Brandau, W.; Streffer, C. In Vitro Studies on the Cellular Uptake of Melanoma Imaging Aminoalkyl-iodobenzamide Derivatives (ABA). Nucl. Med. Biol. 1999, 26, 51-56; and Michelot, J. M.; Moreau, M. F. C.; Veyre, A. J.; Bonafous, J. F.; Bacin, F. J.; Madelmont, J. C.; Bussiere, F.; Souteyrand, P. A.; Mauclaire, L. P.; Chossat, F. M.; Papon, J. M.; Labarre, P. G.; Kauffmann, Ph.; Plagne, R. J. Phase II Scintigraphic Clinical Trial of Malignant Melanoma and Metastases with Iodine-123-N-(2-Diethylaminoethyl 4-Iodobenzamide). J. Nucl. Med. 1993, 34, 1260-1266. The tumor cells (B16/F0), obtained from ATCC, were washed with PBS and transplanted subcutaneously on the left hind flank by an inoculation of 0.5×10^6 cells (0.1 mL). Ten to 14 days later the animals developed palpable tumor nodules 3 to 5 mm in diameter. The biodistribution studies were carried out by tail-vein injection of 25 to 30 μCi (0.05 to 0.1 mL) of the ^99mTc-labeled complexes Tc-(Compound A-D, H, J, K or M). At the designated time after tail-vein administration, the animals were weighed and sacrificed. The organs and tumors were harvested and, when appropriate, blotted dry, weighed, and counted in a gamma counter along with technetium-99m standards of the injected dose. The results are expressed as % ID/g tissue (Table 4 and 5)"}}, "data": [{"smiles": "CCN(CC)CCN(CCSC(c1ccccc1)(c1ccccc1)c1ccccc1)CC(=O)NCCSC(c1ccccc1)(c1ccccc1)c1ccccc1", "note": "[Compound A, N-[(2-diethylaminoethyl)-N-(2-(2-(S-(triphenyl-methyl)thio)ethyl)amino)acetyl]-S-(triphenylmethyl)-2-aminoethane-thiol]", "values": [{"measurement": "% Tumor uptake (In-vitro, 60 min) 4° C.", "setting": "[1]", "result": "33 ± 2.4", "unit": "%"}, {"measurement": "% Tumor uptake (In-vitro, 60 min) 37° C.", "setting": "[1]", "result": "44 ± 1.6", "unit": "%"}, {"measurement": "% active", "setting": "[1]", "result": 25, "unit": "%"}, {"measurement": "In-vivo M/Blood", "setting": "B16/F0 murine melanoma; mouse, in vivo", "result": 7.6}, {"measurement": "In-vivo M/Lung", "setting": "B16/F0 murine melanoma; mouse, in vivo", "result": 5.4}, {"measurement": "In-vivo M/Spleen", "setting": "B16/F0 murine melanoma; mouse, in vivo", "result": 4.2}]}, {"smiles": "CCCCN(CCCC)CCN(CCSC(c1ccccc1)(c1ccccc1)c1ccccc1)CC(=O)NCCSC(c1ccccc1)(c1ccccc1)c1ccccc1", "note": "[Compound B, N-[(2-dibutylaminoethyl)-N-(2-(2-(S-(triphenylmethyl)thio)ethyl)amino)-acetyl]-S-(triphenylmethyl)-2-aminoethanethiol]", "values": [{"measurement": "% Tumor uptake (In-vitro, 60 min) 4° C.", "setting": "[1]", "result": "16 ± 1.3", "unit": "%"}, {"measurement": "% Tumor uptake (In-vitro, 60 min) 37° C.", "setting": "[1]", "result": "8 ± 1.9", "unit": "%"}, {"measurement": "In-vivo M/Blood", "setting": "B16/F0 murine melanoma; mouse, in vivo", "result": 7.6}, {"measurement": "In-vivo M/Lung", "setting": "B16/F0 murine melanoma; mouse, in vivo", "result": 2.1}, {"measurement": "In-vivo M/Spleen", "setting": "B16/F0 murine melanoma; mouse, in vivo", "result": 4.0}]}, {"smiles": "CCN(CC)CCCN(CCSC(c1ccccc1)(c1ccccc1)c1ccccc1)CC(=O)NCCSC(c1ccccc1)(c1ccccc1)c1ccccc1", "note": "[Compound C, N-[(3-diethylaminopropyl)-N-(2-(2-(S-(triphenylmethyl)thio)ethyl)amino)-acetyl]-S-(triphenylmethyl)-2-aminoethanethiol]", "values": [{"measurement": "% Tumor uptake (In-vitro, 60 min) 4° C.", "setting": "[1]", "result": "17 ± 1.5", "unit": "%"}, {"measurement": "% Tumor uptake (In-vitro, 60 min) 37° C.", "setting": "[1]", "result": "62 ± 0.8", "unit": "%"}, {"measurement": "% active", "setting": "[1]", "result": 73, "unit": "%"}, {"measurement": "In-vivo M/Blood", "setting": "B16/F0 murine melanoma; mouse, in vivo", "result": 7.7}, {"measurement": "In-vivo M/Lung", "setting": "B16/F0 murine melanoma; mouse, in vivo", "result": 2.4}, {"measurement": "In-vivo M/Spleen", "setting": "B16/F0 murine melanoma; mouse, in vivo", "result": 3.0}]}, {"smiles": "CCCCN(CCCC)CCCN(CCSC(c1ccccc1)(c1ccccc1)c1ccccc1)CC(=O)NCCSC(c1ccccc1)(c1ccccc1)c1ccccc1", "note": "[Compound D, N-[(3-dibutylaminopropyl)-N-(2-(2-(S-(triphenylmethyl)thio)ethyl)amino)-acetyl]-S-(triphenylmethyl)-2-aminoethanethiol]", "values": [{"measurement": "% Tumor uptake (In-vitro, 60 min) 4° C.", "setting": "[1]", "result": "56 ± 2.7", "unit": "%"}, {"measurement": "% Tumor uptake (In-vitro, 60 min) 37° C.", "setting": "[1]", "result": "68 ± 2.3", "unit": "%"}, {"measurement": "% active", "setting": "[1]", "result": 18, "unit": "%"}, {"measurement": "In-vivo M/Blood", "setting": "B16/F0 murine melanoma; mouse, in vivo", "result": 4.3}, {"measurement": "In-vivo M/Lung", "setting": "B16/F0 murine melanoma; mouse, in vivo", "result": 1.5}, {"measurement": "In-vivo M/Spleen", "setting": "B16/F0 murine melanoma; mouse, in vivo", "result": 1.4}]}, {"smiles": "CCN(CC)CCNC(=O)c1ccc(I)cc1", "note": "[IBZA, reference compound]", "values": [{"measurement": "% Tumor uptake (In-vitro, 60 min) 4° C.", "setting": "[1]", "result": "28 ± 1.4", "unit": "%"}, {"measurement": "% Tumor uptake (In-vitro, 60 min) 37° C.", "setting": "[1]", "result": "26 ± 1.4", "unit": "%"}, {"measurement": "In-vivo Tumor uptake, Melanoma", "setting": "B16/F0 murine melanoma; 60 min", "result": 5.5, "unit": "% I.D./g"}, {"measurement": "In-vivo M/Blood", "setting": "B16/F0 murine melanoma; melanoma/blood ratio, 60 min", "result": 8}, {"measurement": "In-vivo M/Lung", "setting": "B16/F0 murine melanoma; melanoma/lung ratio, 60 min", "result": "<1"}, {"measurement": "In-vivo M/Spleen", "setting": "B16/F0 murine melanoma; melanoma/spleen ratio, 60 min", "result": 1}]}, {"smiles": "O=C1CN(CCN2CCCCC2)CC[S][99Tc]2(=[O])[S]CC[N]12", "note": "(stereo not shown) [^99mTc-Compound J]", "values": [{"measurement": "biodistribution blood", "setting": "B16/F0 murine melanoma; 1 h post-injection", "result": 2.26, "unit": "% ID/g"}, {"measurement": "biodistribution brain", "setting": "B16/F0 murine melanoma; 1 h post-injection", "result": 0.52, "unit": "% ID/g"}, {"measurement": "biodistribution heart", "setting": "B16/F0 murine melanoma; 1 h post-injection", "result": 0.91, "unit": "% ID/g"}, {"measurement": "biodistribution kidney", "setting": "B16/F0 murine melanoma; 1 h post-injection", "result": 4.26, "unit": "% ID/g"}, {"measurement": "biodistribution liver", "setting": "B16/F0 murine melanoma; 1 h post-injection", "result": 14.9, "unit": "% ID/g"}, {"measurement": "biodistribution lung", "setting": "B16/F0 murine melanoma; 1 h post-injection", "result": 2.50, "unit": "% ID/g"}, {"measurement": "biodistribution melanoma", "setting": "B16/F0 murine melanoma; 1 h post-injection", "result": 5.26, "unit": "% ID/g"}, {"measurement": "biodistribution muscle", "setting": "B16/F0 murine melanoma; 1 h post-injection", "result": 0.42, "unit": "% ID/g"}, {"measurement": "biodistribution spleen", "setting": "B16/F0 murine melanoma; 1 h post-injection", "result": 3.28, "unit": "% ID/g"}, {"measurement": "mel/blood ratio", "setting": "B16/F0 murine melanoma; 1 h post-injection", "result": 2.3}, {"measurement": "mel/liver ratio", "setting": "B16/F0 murine melanoma; 1 h post-injection", "result": "<1"}, {"measurement": "mel/lung ratio", "setting": "B16/F0 murine melanoma; 1 h post-injection", "result": 2.1}, {"measurement": "mel/spleen ratio", "setting": "B16/F0 murine melanoma; 1 h post-injection", "result": 1.6}, {"measurement": "biodistribution blood", "setting": "B16/F0 murine melanoma; 6 h post-injection", "result": 0.20, "unit": "% ID/g"}, {"measurement": "biodistribution brain", "setting": "B16/F0 murine melanoma; 6 h post-injection", "result": 0.05, "unit": "% ID/g"}, {"measurement": "biodistribution heart", "setting": "B16/F0 murine melanoma; 6 h post-injection", "result": 0.26, "unit": "% ID/g"}, {"measurement": "biodistribution kidney", "setting": "B16/F0 murine melanoma; 6 h post-injection", "result": 2.31, "unit": "% ID/g"}, {"measurement": "biodistribution liver", "setting": "B16/F0 murine melanoma; 6 h post-injection", "result": 4.62, "unit": "% ID/g"}, {"measurement": "biodistribution lung", "setting": "B16/F0 murine melanoma; 6 h post-injection", "result": 0.31, "unit": "% ID/g"}, {"measurement": "biodistribution melanoma", "setting": "B16/F0 murine melanoma; 6 h post-injection", "result": 3.33, "unit": "% ID/g"}, {"measurement": "biodistribution muscle", "setting": "B16/F0 murine melanoma; 6 h post-injection", "result": 0.15, "unit": "% ID/g"}, {"measurement": "biodistribution spleen", "setting": "B16/F0 murine melanoma; 6 h post-injection", "result": 0.20, "unit": "% ID/g"}, {"measurement": "mel/blood ratio", "setting": "B16/F0 murine melanoma; 6 h post-injection", "result": 16.7}, {"measurement": "mel/liver ratio", "setting": "B16/F0 murine melanoma; 6 h post-injection", "result": "<1"}, {"measurement": "mel/lung ratio", "setting": "B16/F0 murine melanoma; 6 h post-injection", "result": 10.7}, {"measurement": "mel/spleen ratio", "setting": "B16/F0 murine melanoma; 6 h post-injection", "result": 16.7}]}]}
